# Measured values taken from patent US20230285372A1, “Pharmaceutical use of (E)-3-arylheterocyclylprop-2-enoic acid derivatives” (MEDCURIUS INC., priority 2020, published 2023).
# Where “and” joins values, the source holds several entries; their conditions need not be identical. Identical values can stand only once.
# Tests used:
# HT-22 cells = test: Protective effect on HT-22 cell damage caused by L-glutamate monosodium salt; assay type: cell-based, mouse; conditions: 15 mM L-glutamate
# Procedure: (§1) Well-proliferated HT-22 cells, derived from mouse hippocampal neuronal cells in logarithmic growth phase, were selected, and they were counted after being subjected to trypsin digestion and dispersion. The cell density was adjusted with DMEM/F12 medium (containing 10% FBS and 1% double antibody). The cells were then inoculated in a 96-well plate at a density of 2,000 cells per well, and cultured in a cell incubator at 37° C. in atmosphere containing 5% CO2 for 24 hours. For the control group and the L-glutamate monosodium salt group (model group), serum-free DMEM/F12 medium was added, and the other wells were added with tested compounds of different concentrations; except that the serum-free DMEM/F12 medium was added to the control group. L-glutamate monosodium salt solution at the final concentration of 15 mM was added to the remaining wells. After 24 hours, the cell viability was detected with a luminescent cell viability assay kit.
# as §1, with “group,” for “group.”
# as §1, with “2.000” for “2,000”, “group,” for “group.”
# [1] = system: MPTP-induced Parkinson's disease mouse; test: Pole-climbing test, MPTP-induced Parkinson's disease mouse; assay type: in vivo; conditions: 40 days, vs model group
# Procedure: (§2) Male C57 mouse were screened for their motor function by a mouse rod-rotating test, and unqualified ones were excluded from the test. […] MPTP was injected subcutaneously every 4 days in the model group and the drug administration group with a dosage of 25 mg/kg for 40 consecutive days. Each group of I-5 was administered once a day at 8:00 am and 8:00 pm (by intragastric administration), twice in total. […] The intragastric volume was 0.1 ml/10 g body weight, and the behavior test was started 40 days later. […] The storage time of the prepared liquid medicine was not more than 24 hours.
# A climbing pole in the pole-climbing test was a rough wooden pole with a diameter of 2 cm and a length of 50 cm. The bottom of the wooden pole was located in the mouse home cage and was vertically oriented. When the mouse was placed on top of the wooden pole, it would naturally descend to the bottom of the wooden pole and reach the base of the pole. […] The mouse should have a pre-acclimation period of 2 days prior to the test, training five times a day. To the test day, the time required for the […] to reach the bottom (incubation period) was taken as an evaluation index to observe the effect of the tested compound on the motion ability of the mouse.
# α-synuclein protein = α-synuclein protein level in midbrain, Western blot, MPTP mouse; assay type: in vivo; conditions: high dosage treatment group of I-5; vs model group, p<0.05
# Description: The core pathological change of Parkinson's disease is the loss of dopaminergic neurons. Tyrosine hydroxylase (TH), the rate-limiting enzyme in dopamine synthesis, is the landmark protein of the dopaminergic neurons. Therefore, the decrease in its level indicates the loss of the dopaminergic neurons. A key protein for the occurrence and development of Parkinson's disease is α-synuclein protein, and the abnormal modification (hyperphosphorylation) of this protein can inhibit microtubule polymerization, enhance oxidative stress, and thus accelerate the death of the dopaminergic neurons.
# Male C57 mouse were screened for their motor function by a mouse rod-rotating test, and unqualified ones were excluded from the test. […] MPTP was injected subcutaneously every 4 days in the model group and the drug administration group with a dosage of 25 mg/kg for 40 consecutive days. Each group of I-5 was administered once a day at 8:00 am and 8:00 pm (by intragastric administration), twice in total. […]
# Tissues from all the animals were collected on the second day after the end of the behavioral experiment. […] The level of tyrosine hydroxylase (TH), a marker protein of dopaminergic neurons, was detected by immumohistochemistry, and α-synuclein protein level and phosphorylation level of the protein were detected by Western blot.
# Nrf2 = Nrf2 protein level in the nucleus of HT-22 cells, Western Blot; assay type: cell-based, mouse; conditions: 1.25 μM and 0.625 μM, 24 hours, vs control group
# Description: (§3) As a transcription factor, Nrf2 needs to enter the nucleus and combine with ARE sequence to play a role in transcriptional activation. Therefore, Nrf2 protein level in the nucleus is an important prerequisite for the activation of Nrf2 signaling pathway. NQO-1 and HO-1 are target genes regulated by Nrf2, and the increase of their protein levels is an important sign of activation of the Nrf2 signaling pathway.
# (§4) HT-22 cells in logarithmic growth phase were selected, the culture medium was discarded, the cells were digested with 0.25% Trypsin containing EDTA, and cell suspension was made. Cell density was adjusted to 50000/ml with DMEM/F12 medium (containing 10% FBS and 1% double antibody) and it was inoculated to 6-well plate, with 2000 μL/well, the number of cells per well was 100, 000, and the cells were cultured in a cell incubator at 37° C. in an atmosphere containing 5% CO2 for 24 hours. Then, the medium of each well was replaced with new 1980 μL DMEM/F12 medium. […] After 24 hours, the cells were collected, nuclear protein and cytoplasmic protein were extracted, and the level of Nrf2 in the nucleus and the expression of NQO-1 and HO-1 in cytoplasm were detected by Western Blot.
# NQO-1 = NQO-1 expression in HT-22 cytoplasm, Western Blot; assay type: cell-based, mouse; conditions: HT-22 cells, 1.25 μM, 24 hours, vs control group
# Description: as §3, §4
# [2] = system: MPTP-induced Parkinson's disease mouse; test: Model of MPTP-induced Parkinson's disease mouse, overall conclusion; assay type: in vivo; conditions: improves MPTP-induced dyskinesia and inhibits neurodegeneration; bid intragastric
# Procedure: as §2
smiles,measurement,setting,value
N#C/C=C/c1ccccn1 [Compound I-5],"protection of HT22 cells against L-glutamate monosodium salt damage, in words","HT-22 cells; HT22 cells, comparison with positive control drug DMF",better effects than the positive control drug DMF
same,viability at 0.156 µM,"HT-22 cells; Mus musculus, HT-22, 24 h, Table 1, Conc 0.156 μm, 24 hours, L-Glu alone 27.73 (I-5 32.92), read-out: cell viability",79.3%
same,viability at 0.625 µM,"HT-22 cells; Mus musculus, HT-22, 24 h, Table 1, Conc 0.625 μm, 24 hours, L-Glu alone 27.73 (I-5 32.92), read-out: cell viability",73.7%
same,viability at 2.5 µM,"HT-22 cells; Mus musculus, HT-22, 24 h, Table 1, Conc 2.5 μm, 24 hours, L-Glu alone 27.73 (I-5 32.92), read-out: cell viability",57.6%
same,viability at 5 µM,"HT-22 cells; Mus musculus, HT-22, 24 h, Table 1, Conc 5 μm, 24 hours, L-Glu alone 27.73 (I-5 32.92), read-out: cell viability",58.2%
same,latency of mouse reaching the base of the pole,"[1]; I-5 5 mg/kg bid intragastric, p<0.01",significantly shortened
same,latency of mouse reaching the base of the pole,"[1]; I-5 10 mg/kg bid intragastric, p<0.0001",significantly shortened
same,latency of mouse reaching the base of the pole,"[1]; I-5 20 mg/kg bid intragastric, p<0.0001",significantly shortened
same,α-synuclein protein level in the midbrain,α-synuclein protein,significantly higher than that of the model group
same,protein level of Nrf2 in the nucleus,Nrf2,significantly higher than that of the control group
same,protein level of NQO-1,NQO-1,increased significantly
same,effective doses,[2],10 mg/kg and 20 mg/kg
